A short description of data set [1]: In vitro stability in 6 mM DTPA solution pH 7 (RP-HPLC). Format: physicochemical. To be noted: 6 mM DTPA pH 7, 37 °C. The protocol: The in vitro stability of radiolabelled siderophores (3–6 μg/100 μl) was tested in fresh human serum (300 μl) and a 6 mM solution of diethylenetriaminepentaacetic acid (DTPA) pH = 7 (100 μl) at 37 °C at several time points (30, […]). After incubation, human serum samples were precipitated with acetonitrile or ethanol, centrifuged (2200×g, 3 min) and the supernatant analyzed. Degradation of the radiolabelled siderophore complexes was evaluated by RP-HPLC. Samples of the DTPA solutions were directly injected onto the HPLC.

The nature of data set [2]: In vitro stability in fresh human serum (RP-HPLC). The class given is in vitro ADME. The following applies: for Stability in human serum (%) (n = 1): 37 °C; for in vitro stability (in words): human serum and 6 mM DTPA, all examined media. Here is the method: […] After incubation, human serum samples were precipitated with acetonitrile or ethanol, centrifuged (2200×g, 3 min) and the supernatant analyzed. Degradation of the radiolabelled siderophore complexes was evaluated by RP-HPLC. Samples of the DTPA solutions were directly injected onto the HPLC.

Data set [3] in a line: Protein binding in fresh human serum (size-exclusion MicroSpin G-50). The class given is in vitro ADME. The following applies: for protein binding: after 24-h incubation period; for Protein binding (%) (mean, n = 2): 37 °C. The protocol: Protein binding studies were performed by incubating radiolabelled siderophore (1–2 μg/150 μl) in fresh human serum (850 μl) and in PBS (850 μl) (control) at 37 °C for various time points (30, 60 and 120 min for [^68Ga]siderophores and 1, 4 and 24 h for [^89Zr]siderophores). After incubation, 25 μl of the sample was separated by size-exclusion chromatography (MicroSpin™ G-50 Columns; Sephadex G-50 (GE Healthcare, Buckinghamshire, UK)) by centrifugation at 2000×g for 2 min. Protein binding of radiolabelled siderophores was determined by measuring the activity distributed between the column (non protein-bound) and the eluate (protein-bound) using the automatic gamma counter.
Background: SEC sorts molecules by how far they enter the pores of the column.

Data set [4] can be described thus: Ex vivo biodistribution in Balb/c mice. To be noted: r.o. injection, 30 and 90 min p.i. The protocol:
Biodistibution of radiolabelled siderophores was studied in female Balb/c mice (8 weeks old). Ga-68 and Zr-89 labelled siderophores (1–2 MBq/mouse, corresponding to 0.1–0.2 μg of siderophore per mouse) were injected retro-orbitally (r.o.). Animals were sacrificed by cervical dislocation 30 and 90 min post-injection (p.i.). Organs and tissues (blood, spleen, pancreas, stomach, intestine, kidneys, liver, heart, lung, muscle and femur) were removed and weighed. The amount of radioactivity in the samples was measured in an automatic gamma counter. Results were expressed as percentage of injected dose per gram organ (%ID/g).

The nature of data set [5]: Protein binding in fresh human serum (size-exclusion MicroSpin G-50). The class given is in vitro ADME. The following applies: 37 °C.
Data set [6] is described as follows: Partition coefficient determination (octanol/PBS pH 7.4). Format: physicochemical. Here is the method:
Radiolabelled siderophore in 0.5 ml phosphate-buffered saline (PBS) pH = 7.4 was added to 0.5 ml octanol and the mixture was vigorously vortexed for 15 min. The aqueous and organic solvents were separated by centrifugation and 50 μl aliquots of both layers were collected and measured in the automatic gamma counter (WIZARD^2; PerkinElmer, Waltham, USA). Log P values were calculated from obtained data (mean of n = 6).

A short description of data set [7]: Small animal PET/CT imaging in Balb/c mice. The class given is in vivo. To be noted: r.o. injection, 5-10 MBq. The protocol: PET and computed tomography (CT) images were acquired with an Albira PET/SPECT/CT small animal imaging system (Bruker Biospin Corporation, Woodbridge, CT, USA). Female Balb/c mice were r.o. injected with radiolabelled siderophores in a dose of 5–10 MBq corresponding to 0.5–1 μg of siderophore per mouse. Animals were anaesthetized with isoflurane (FORANE, Abbott Laboratories, Abbott Park, IL, USA) (2 % flow rate) and positioned prone head first in the Albira system before the start of imaging. Static PET/CT imaging was carried out 5, 30 and 90 min p.i. for both Ga-68 and Zr-89 labelled siderophores. Animals injected with [^89Zr]siderophores were also imaged 4 h p.i. A 5-min PET scan (axial FOV 148 mm) was performed, followed by a CT scan (axial FOV 65 mm, 45 kVp, 400 μA, at 600 projections). Dynamic imaging was carried out immediately after the injection of radiolabelled siderophore for 90 min (5 min PET scan per frame). Scans were reconstructed with the Albira software (Bruker Biospin Corporation, Woodbridge, CT, USA) using the maximum likelihood expectation maximization (MLEM) and filtered backprojection (FBP) algorithms. After reconstruction, acquired data was viewed and analyzed with PMOD software (PMOD Technologies Ltd., Zurich, Switzerland). 3D images were obtained using VolView software (Kitware, Clifton Park, NY, USA). […]

Here are results for 7 molecules from paper PMC4870302, “In Vitro and In Vivo Comparison of Selected Ga-68 and Zr-89 Labelled Siderophores” (Molecular Imaging and Biology, 2015).

Structures are written as SMILES.

Regarding `O=C1CCC(=O)N([O-])CCCCCNC(=O)CCC(=O)N([O-])CCCCCNC(=O)CCC(=O)N([O-])CCCCCN1.[89Zr+4]` [[^89Zr]FOXE, [^89Zr]ferrioxamine E], the “Stability in DTPA solution (%) (n = 1)” value in data set [1] (Incubation time (min) 1) stood at 99.70%; in data set [1] (Incubation time (min) 4), 99.50%; in data set [1] (Incubation time (min) 24), 99.70%. Further, the “Stability in human serum (%) (n = 1)” value in data set [2] (Incubation time (min) 4) came out at 99.70%; in data set [2] (incubation time 24 h) it was 98.34%. This molecule returned a protein binding in data set [3] of 16.6%. Also, the “ex vivo biodistribution (in words)” value in data set [4] is “significantly higher radioactivity accumulation in the intestines and liver”. Moreover, the results for the “Protein binding (%) (mean, n = 2)” value in data set [5] (1) and in data set [5] (24) were 3.27% and 16.59%, respectively. For the same molecule, in data set [6] (Zr-89 labelled), the “Log P (mean ± SD, n = 6)” value is reported as −1.91 ± 0.04. The “kinetics and excretion route in PET imaging (in words)” value in data set [7] is “much slower kinetics and significant hepatobiliary elimination”.

Regarding `CC(=O)NC1CCCN([O-])C(=O)C=C(C)CCOC(=O)C(NC(C)=O)CCCN([O-])C(=O)C=C(C)CCOC(=O)C(NC(C)=O)CCCN([O-])C(=O)C=C(C)CCOC1=O.[89Zr+4]` (centres unmarked) [[^89Zr]TAFC, [^89Zr]triacetylfusarinine C], the entries for the “Stability in DTPA solution (%) (n = 1)” value in data set [1] (Incubation time (min) 1), in data set [1] (Incubation time (min) 4) and in data set [1] (Incubation time (min) 24) were 99.51%, 99.50% and 99.50%, respectively. Besides, the results for the “Stability in human serum (%) (n = 1)” value in data set [2] (Incubation time (min) 4) and in data set [2] (incubation time 24 h) were 98.72% and 98.50%, respectively. Besides, the “Protein binding (%) (mean, n = 2)” value in data set [5] (1) is listed as 0.99%; in data set [5] (24), 1.37%. The “Log P (mean ± SD, n = 6)” value in data set [6] (Zr-89 labelled) was −1.95 ± 0.03.

As to `O=C1CCC(=O)N([O-])CCCCCNC(=O)CCC(=O)N([O-])CCCCCNC(=O)CCC(=O)N([O-])CCCCCN1.[68Ga+3]` [[^68Ga]FOXE, [^68Ga]ferrioxamine E], the figures for the “Stability in DTPA solution (%) (n = 1)” value in data set [1] (incubation time 30 min), in data set [1] (incubation time 60 min) and in data set [1] (incubation time 120 min) were 94.3%, 93.8% and 93.2%, respectively. The “Stability in human serum (%) (n = 1)” value in data set [2] (incubation time 30 min), in data set [2] (incubation time 60 min) and in data set [2] (incubation time 120 min) was 99.9% throughout. The “Protein binding (%) (mean, n = 2)” value in data set [3] (incubation time 30 min) is 0.27%; in data set [3] (incubation time 60 min) it was 0.24%; in data set [3] (incubation time 120 min) it was 0.53%. Besides, the “ex vivo biodistribution (in words)” value in data set [4] is listed as “slightly higher radioactivity values in gastrointestinal tract”. The “Log P (mean ± SD, n = 6)” value in data set [6] (Ga-68 labelled) is reported as −1.65 ± 0.03. Besides, the “kinetics and excretion route in PET imaging (in words)” value in data set [7] was “quickly eliminated mainly via the kidneys”.

Consider `CC(=O)N([O-])CCCCCNC(=O)CCC(=O)N([O-])CCCCCNC(=O)CCC(=O)N([O-])CCCCCN.[68Ga+3]` [[^68Ga]FOXB], for which the entries for the “Stability in DTPA solution (%) (n = 1)” value in data set [1] (incubation time 30 min), in data set [1] (incubation time 60 min) and in data set [1] (incubation time 120 min) were 60.1%, 54.5% and 52.9%, respectively. The entries for the “Stability in human serum (%) (n = 1)” value in data set [2] (incubation time 30 min), in data set [2] (incubation time 60 min) and in data set [2] (incubation time 120 min) were 74.1%, 72.0% and 75.4%, respectively. Besides, the “in vitro stability (in words)” value in data set [2] is on record as “pronounced in vitro instability”. The “Protein binding (%) (mean, n = 2)” value in data set [3] (incubation time 30 min) was 7.67%; in data set [3] (incubation time 60 min), 10.29%; in data set [3] (incubation time 120 min) it was 10.83%. Further, the “Log P (mean ± SD, n = 6)” value in data set [6] (Ga-68 labelled) is given as −3.56 ± 0.17.

As for `CC(=O)NC1CCCN([O-])C(=O)C=C(C)CCOC(=O)C(NC(C)=O)CCCN([O-])C(=O)C=C(C)CCOC(=O)C(NC(C)=O)CCCN([O-])C(=O)C=C(C)CCOC1=O.[68Ga+3]` (centres unmarked) [[^68Ga]TAFC, [^68Ga]triacetylfusarinine C], the “Stability in DTPA solution (%) (n = 1)” value was determined as 85.0% in data set [1] (incubation time 30 min), 84.7% in data set [1] (incubation time 60 min) and 81.8% in data set [1] (incubation time 120 min). Also, the “Stability in human serum (%) (n = 1)” value in data set [2] (incubation time 30 min), in data set [2] (incubation time 60 min) and in data set [2] (incubation time 120 min) was 99.9% each time. For the same molecule, the “Protein binding (%) (mean, n = 2)” value in data set [3] (incubation time 30 min) worked out at 0.47%; in data set [3] (incubation time 60 min) it was 0.76%; in data set [3] (incubation time 120 min), 1.21%. Further, the “Log P (mean ± SD, n = 6)” value in data set [6] (Ga-68 labelled) is given as −2.59 ± 0.15.

Regarding `CC(=O)N([O-])CCCCCNC(=O)CCC(=O)N([O-])CCCCCNC(=O)CCC(=O)N([O-])CCCCCN.[89Zr+4]` [[^89Zr]FOXB], the “Stability in DTPA solution (%) (n = 1)” value was 91.56% in data set [1] (Incubation time (min) 1), 90.39% in data set [1] (Incubation time (min) 4) and 87.10% in data set [1] (Incubation time (min) 24). Besides, the “Stability in human serum (%) (n = 1)” value in data set [2] (Incubation time (min) 4) is on record as 99.70%; in data set [2] (incubation time 24 h), 99.53%. The “in vitro stability (in words)” value in data set [2] was “higher stability in all examined media”. Further, the “Protein binding (%) (mean, n = 2)” value in data set [5] (1) was found to be 1.63%; in data set [5] (24), 1.84%. For the same molecule, the “Log P (mean ± SD, n = 6)” value in data set [6] (Zr-89 labelled) is −3.01 ± 0.07.

As to `CC(=CC(=O)N([O-])CCCC1NC(=O)CNC(=O)C(CO)NC(=O)C(CO)NC(=O)C(CCCN([O-])C(=O)C=C(C)C(=O)O)NC(=O)C(CCCN([O-])C(=O)C=C(C)C(=O)O)NC1=O)C(=O)O.[89Zr+4]` (centres unmarked) [[^89Zr]FCHA], the “Stability in DTPA solution (%) (n = 1)” value is recorded as 68.70% in data set [1] (Incubation time (min) 1), 65.27% in data set [1] (Incubation time (min) 4) and 54.22% in data set [1] (Incubation time (min) 24). Further, the “Stability in human serum (%) (n = 1)” value is 85.42% in data set [2] (Incubation time (min) 4) and 77.38% in data set [2] (incubation time 24 h). Moreover, the “in vitro stability (in words)” value in data set [2] is “less stable as compared to its Ga-68 labelled counterpart”. This molecule yielded a protein binding in data set [3] of 31.1%. Moreover, the “Protein binding (%) (mean, n = 2)” value in data set [5] (1) turned out to be 2.70%; in data set [5] (24), 31.05%. Besides, the “Log P (mean ± SD, n = 6)” value in data set [6] (Zr-89 labelled) was −3.28 ± 0.37.
